Measured values as given in patent US11478474B2, “2-(3′-(hydroxymethyl)-1-methyl-5-((5-(2-methyl-4-(oxetan-3-yl)piperazin-1-yl)pyridin-2-yl)amino)-6-oxo-1,6-dihydro-[3,4′-bipyridin]-2′-yl)-7,7-dimethyl-7,8-dihydro-2H-cyclopenta[4,5]pyrrolo[1,2-a]pyrazin-1(6H)-one as a BTK inhibitor” (HUTCHISON MEDIPHARMA LIMITED, priority 2020, dated 2022).

How the values were obtained:
[1] = system: TMD8 subcutaneous xenograft (human diffuse large B-cell lymphoma cells); assay: In vivo efficacy in TMD8 subcutaneous xenograft model in nude mice; details: for Number of animals with CR (Day 21): 8 animals per group; for Tumor volume (mm^3) ± SD Day 0: Day 0, before drug administration; for TGI (%) / Tumor volume (mm^3) ± SD Day 21: Day 21; for RBW (%) (Day 21): relative body weight; for Tumor growth inhibition (TGI %): oral gavage once a day, 21 days after treatment, vs vehicle control
Experimental: Example 7 Evaluation of In Vivo Efficacy of the Compound of the Present Invention in TMD8 Subcutaneous Xenograft Model
Objects: To investigate the anti-tumor activity of compound 19 in TMD8 subcutaneous xenograft model in nude mice.
Methods: Human diffuse large B-cell lymphoma cells TMD8 (acquired under license from Tokyo Medical and Dental University) were cultured in RPMI1640 medium containing 10% fetal bovine serum. 1×10^7 tumor cells suspended in RPMI1640 medium mixed well with Matrigel (purchased from Corning, USA) at 1:1 were implanted subcutaneously on the right flank of each male Balb/c nude mouse (Shanghai Lingchang Biotechnology Co., Ltd.), pretreated with cyclophosphamide (at a dose of 200 mg/kg, intraperitoneal injection 24 h before cell inoculation). […] All drugs were administered by oral gavage, once a day, and the vehicle control group was administered orally with 0.5% hydroxypropyl methylcellulose solution (pH=3).
Tumor volumes (tumor volume=0.5×long diameter×short diameter^2) and body weights of the mice were measured regularly. The tumor volume change and body weight were statistically analyzed, with p<0.05 considered statistically significant, and p<0.01 as extremely statistically significant.
The anti-tumor activity was evaluated by tumor growth inhibition. Tumor growth inhibition (TGI %)=100%×(1−(TVDt (treatment group)−TVD0 (treatment group))/(TVDt (control group)−TVD0 (control group))) Relative body weight (RBW %)=BWDt/BWD0×100%
wherein, TVD0 represents the tumor volume obtained at first measurement, namely, the tumor volume before drug administration, and TVDt represents the tumor volume on the day of measurement; BWD0 represents the body weight of the animal obtained at first measurement, namely, the body weight of the animal before drug administration; BWDt represents the body weight of the animal on the day of measurement.

[2] = system: B cell activation in mouse whole blood induced by anti-IgD antibodies; assay: In vivo efficacy of the inhibitory effect on BTK target (anti-IgD antibody-induced B cell activation in mice whole blood after in vivo administration)
Experimental: Objects: B cells in mice whole blood were induced and activated by the anti-IgD antibody, and the inhibitory effect of the compound of the present invention on B cell activation in vivo was studied, so as to determine the inhibitory effect of the compound of the present invention on the BTK target in vivo.
Methods: C57BL/6 mice (female, 18-20 g, purchased from Shanghai Lingchang Biotechnology Co., Ltd.) were grouped according to Table 2.
The animals of each group were administered, then were placed in CO2 for anesthesia at designated time points, blood samples were taken from […] via retro-orbital bleeding, and heparin was used for anticoagulation; 90 μL of whole blood was taken from mice of each group, and added to a 96 well culture plate, and anti-mouse IgD antibody (BIO-RAD, Cat #MCA4693) was added to each well to a final concentration of 0.01 μg/μL (respectively for the each drug-treated group and anti-IgD antibody-inducted vehicle group); in addition, 90 μL of whole blood of mice in the vehicle group was taken and added to the 96-well culture plate, and PBS (phosphate buffer, GIBCO, Cat #C20012500BT) was added to each well to a final concentration of 0.01 μg/μL (namely, the vehicle control group); Each group was mixed well and incubated in a 37° C./5% CO2 incubator for 4 hours. In addition, the blood of mice in the drug-treated group was centrifuged to separate plasma for blood concentration analysis.
Calculation for B Cell Activation Ratio: B cell activation ratio=percentage of CD69+CD19+double positive B cells/percentage of CD19+single positive B cells
Calculation for Inhibition Ratio: Inhibition ratio=(percentage of B cell activation ratio in anti-IgD antibody-induced vehicle group-percentage of B cell activation ratio in drug-treated group)/(percentage of B cell activation ratio in anti-IgD antibody-induced vehicle group-percentage of B cell activation ratio in vehicle control group)×100%
All data are represented by mean±standard error. For the comparison between each drug-treated group and the anti-IgD antibody-induced vehicle group, p value was calculated by Graphpad Prism using one-way ANOVA analysis of variance and Dunnett's test, and for the comparison between each drug-treated group, p value was calculated by using unpaired t test.

[3] = system: collagen induced arthritis in rats; assay: Rat arthritis model induced by type II collagen (CIA), paw volume; format: in vivo; details: CIA Lewis rats
Experimental: Example 9 Therapeutic Effect of the Compound of the Present Invention on a Rat Arthritis Model Induced by Type II Collagen
An appropriate amount of bovine type II collagen (CII, Chondrex (Redmond, Wash., USA), Cat #20021) was weighed and dissolved in 0.1 mole of acetic acid (SPGC Sinopharm Chemical Reagent Co., Ltd (Shanghai, P. R. China), Cat #: 10000218.), which was formulated into a solution with a concentration of 6 mg/mL, stirred at 4° C. overnight, and added with an equal volume of Freund's incomplete adjuvant (Sigma-Aldrich. (St. Louis, Mo., USA), Cat #: SLBW0366.), fully emulsified to prepare an emulsion with a CII concentration of 3 mg/mL.
Female Lewis rats were purchased from Beijing Vital River Laboratory Animal Technology Co., Ltd (certificate number 1100111911070522, initial body weight of 110-130 grams), and 3 rats were randomly selected as normal group, and the remaining rats were grouped according to the following table. In the first immunization on day 0, the rats except that in the normal group were anesthetized with isoflurane (Hebei Yipin Pharmaceutical Co., Ltd., Lot: C002170601.), and then disinfected with 75% alcohol. 0.2 mL of emulsion was injected intradermally at the base of the tail thereof. A second challenge was carried out on day 7, and 0.2 mL of emulsion was intradermally injected using the same method.
The paw volume was measured on day 8 after immunization, and the left and right hind paw volumes (V) were measured every day after the paw volume increase was detected.
The average arthrosis paw volume of each animal before administration was used as the baseline (or considered 100% inhibition of inflammation). The averaged paw swelling (APS) of each animal is calculated according to the following formula, wherein, APVd1 is the average paw volume of the animal administered on day 1, and APVdt is the average paw volume of the animal administered on day t: The averaged paw swelling APSdt=(APVdt−APVd1)
ED50 is calculated by XLfit software according to the AUC inhibition ratio of the area under the curve of the average paw volume change. The selected model is “log (inhibitor) vs. response−Variable slope”: […]

[4] = 10 mg/kg oral gavage once a day
[5] = 30 mg/kg oral gavage once a day
[6] = oral QD, from AUC inhibition ratio of average paw volume change

With `C[C@H]1CN(C2COC2)CCN1c1ccc(Nc2cc(-c3ccnc(-n4ccn5c6c(cc5c4=O)CC(C)(C)C6)c3CO)cn(C)c2=O)nc1` [Compound 19] the “Number of animals with CR (Day 21)” value [1, 4] was 0, the “Tumor volume (mm^3) ± SD Day 0” value [1, 4] was 400 ± 41 mm^3 and the “TGI (%)” value [1, 4] was 76.5%. For the same molecule, the “Tumor volume (mm^3) ± SD Day 21” value [1, 4] was 1065 mm^3, the “RBW (%) (Day 21)” value [1, 4] was 111.0% and the “Tumor growth inhibition (TGI %)” value ([1]; 10 mg/kg) was 76.5%. The “Number of animals with CR (Day 21)” value [1, 5] was 8, the “Tumor volume (mm^3) ± SD Day 0” value [1, 5] was 396 ± 47 mm^3 and the “TGI (%)” value [1, 5] was 114%. The “Tumor volume (mm^3) ± SD Day 21” value [1, 5] was 0 mm^3, the “RBW (%) (Day 21)” value [1, 5] was 109.8% and the “Tumor growth inhibition (TGI %)” value ([1]; 30 mg/kg) was 114%. For the same molecule, the “mice with complete tumor regression (CR)” value ([1]; 30 mg/kg, oral once a day, Day 21, 8 animals per group) was 8 mice, the “B cell activation ratio (the proportion of activated B cells to total B cells)” value ([2]; 5 mg/kg, 16 h after administration, mice whole blood, anti-IgD antibody, mean±standard error) was 8.3 ± 1.2 and the “Inhibition ratio (%) on B cell activation” value ([2]; 5 mg/kg, 16 hours after administration, mice whole blood, anti-IgD antibody, listed as Compound 19) was 80%. For the same molecule, the “Inhibition ratio (%) on B cell activation” value ([2]; 5 mg/kg, 16 hours after administration, mice whole blood, anti-IgD antibody, listed as compound 19) was 80%, the “inhibition ratio of area under the curve (paw swelling)” value (“inhibition ratio of area” for short) ([3]; 0.06 mg/kg QD oral) was 58.8% and the “inhibition ratio of area” value ([3]; 0.25 mg/kg QD oral) was 91.3%. The “inhibition ratio of area” value ([3]; 1 mg/kg QD oral) was 95.9%, the “inhibition ratio of area” value ([3]; 4 mg/kg QD oral) was 93.2% and the “inhibition ratio of area” value ([3]; 16 mg/kg QD oral) was 97.5%. For the same molecule, the ED50 [3, 6] was < 0.06 mg/kg/day, the ED90 [3, 6] was 0.26 mg/kg and the minimum effective dose ([3]; oral QD, paw swelling) was 0.06 mg/kg/day.

With `C[C@H]1CN(C2COC2)CCN1c1ccc(Nc2cc(-c3ccnc(N4CCn5c(cc6c5CC(C)(C)C6)C4=O)c3CO)cn(C)c2=O)nc1` [GDC-0853, fenebrutinib, reference compound] the “Number of animals with CR (Day 21)” value [1, 4] was 0, the “Tumor volume (mm^3) ± SD Day 0” value [1, 4] was 397 ± 46 mm^3 and the “TGI (%)” value [1, 4] was −12.8%. For the same molecule, the “Tumor volume (mm^3) ± SD Day 21” value [1, 4] was 3585 ± 494 mm^3, the “RBW (%) (Day 21)” value [1, 4] was 115.5% and the “Tumor growth inhibition (TGI %)” value ([1]; 10 mg/kg) was −12.8%. For the same molecule, the “Inhibition ratio (%)” value ([2]; 20 mg/kg single oral gavage, 16 h) was 9%, the “B cell activation ratio (the proportion of activated B cells to total B cells)” value ([2]; 20 mg/kg single oral gavage, 16 h, mean ± standard error) was 29.3 ± 6.7 and the “inhibition ratio on B cell activation” value ([2]; 20 mg/kg, 16 hours after administration, mice whole blood, anti-IgD antibody) was 9%. For the same molecule, the “inhibition ratio of area” value ([3]; 4 mg/kg QD oral) was 87.1% and the “paw volume compared with the vehicle control group” value ([3]; 4 mg/kg QD oral, p<0.01) was “significantly reduced”.
